Source: the supplement of paper PMC10307832

How the values were obtained:
Assay in all cases: relative viability (nuclei count vs DMSO), 5 days (fraction); higher = more cells survive
NCI-H460 = test system: NCI-H460
Procedure, shortened: (§1)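 Five library-drug doses in √10 steps were combined with a fixed anchor-drug dose, or a single drug was given alone, by pin tool to lung cancer cell lines in 1536-well plates the day after seeding. Nuclei were stained and counted after 5 days. Relative viability is the nuclei count in treated wells over that in vehicle wells, taken as the median of duplicate plates.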

LXF-289 = test system: LXF-289
Procedure, shortened: as §1

PC-14 = test system: PC-14
Procedure, shortened: as §1

NCI-H2009 = test system: NCI-H2009
Procedure, shortened: as §1

NCI-H2023 = test system: NCI-H2023
Procedure, shortened: as §1

HARA = test system: HARA
Procedure, shortened: as §1

NCI-H1915 = test system: NCI-H1915
Procedure, shortened: as §1

A-427 = test system: A-427
Procedure, shortened: as §1

NCI-H3122 = test system: NCI-H3122
Procedure, shortened: as §1

UMC-11 = test system: UMC-11
Procedure, shortened: as §1

HCC-366 = test system: HCC-366
Procedure, shortened: as §1

SK-LU-1 = test system: SK-LU-1
Procedure, shortened: as §1

NCI-H1755 = test system: NCI-H1755
Procedure, shortened: as §1

H3255 = test system: H3255
Procedure, shortened: as §1

PC-3 [JPC-3] = test system: PC-3 [JPC-3]
Procedure, shortened: as §1

NCI-H1975 = test system: NCI-H1975
Procedure, shortened: as §1

NCI-H1437 = test system: NCI-H1437
Procedure, shortened: as §1

NCI-H650 = test system: NCI-H650
Procedure, shortened: as §1

NCI-H1793 = test system: NCI-H1793
Procedure, shortened: as §1

NCI-H596 = test system: NCI-H596
Procedure, shortened: as §1

HCC-15 = test system: HCC-15
Procedure, shortened: as §1

NCI-H441 = test system: NCI-H441
Procedure, shortened: as §1

NCI-H2405 = test system: NCI-H2405
Procedure, shortened: as §1

Structure (SMILES): CCCCCCCCCCCC1=C(O)C(=O)C=C(O)C1=O [Embelin] + Nc1nc2[nH]cc(CCc3ccc(C(=O)N[C@@H](CCC(=O)O)C(=O)O)cc3)c2c(=O)[nH]1 [Pemetrexed] (partner 0.2 µM)
- relative viability (NCI-H460; first compound 0.08 µM): 0.0662
- relative viability (NCI-H460; first compound 0.8 µM): 0.072
- relative viability (NCI-H460; first compound 2.53 µM): 0.0629
- relative viability (NCI-H460; first compound 8 µM): 0.0617
- relative viability (LXF-289; first compound 0.08 µM): 0.863
- relative viability (LXF-289; first compound 0.8 µM): 0.915
- relative viability (LXF-289; first compound 2.53 µM): 0.866
- relative viability (LXF-289; first compound 8 µM): 1.08
- relative viability (PC-14; first compound 0.08 µM): 0.158
- relative viability (PC-14; first compound 0.8 µM): 0.126
- relative viability (PC-14; first compound 2.53 µM): 0.134
- relative viability (PC-14; first compound 8 µM): 0.153
- relative viability (NCI-H2009; first compound 0.08 µM): 1.08
- relative viability (NCI-H2009; first compound 0.8 µM): 1.09
- relative viability (NCI-H2009; first compound 2.53 µM): 1.06
- relative viability (NCI-H2009; first compound 8 µM): 1.01
- relative viability (NCI-H2023; first compound 0.08 µM): 0.206
- relative viability (NCI-H2023; first compound 0.8 µM): 0.244
- relative viability (NCI-H2023; first compound 2.53 µM): 0.226
- relative viability (NCI-H2023; first compound 8 µM): 0.249
- relative viability (HARA; first compound 0.08 µM): 0.292
- relative viability (HARA; first compound 0.8 µM): 0.279
- relative viability (HARA; first compound 2.53 µM): 0.256
- relative viability (HARA; first compound 8 µM): 0.208
- relative viability (NCI-H1915; first compound 0.08 µM): 0.518
- relative viability (NCI-H1915; first compound 0.8 µM): 0.488
- relative viability (NCI-H1915; first compound 2.53 µM): 0.558
- relative viability (NCI-H1915; first compound 8 µM): 0.55
- relative viability (A-427; first compound 0.08 µM): 0.993
- relative viability (A-427; first compound 0.8 µM): 1.07
- relative viability (A-427; first compound 2.53 µM): 0.963
- relative viability (A-427; first compound 8 µM): 0.502
- relative viability (NCI-H3122; first compound 0.08 µM): 0.193
- relative viability (NCI-H3122; first compound 0.8 µM): 0.202
- relative viability (NCI-H3122; first compound 2.53 µM): 0.202
- relative viability (NCI-H3122; first compound 8 µM): 0.2
- relative viability (UMC-11; first compound 0.08 µM): 0.812
- relative viability (UMC-11; first compound 0.8 µM): 0.849
- relative viability (UMC-11; first compound 2.53 µM): 0.928
- relative viability (UMC-11; first compound 8 µM): 0.806
- relative viability (HCC-366; first compound 0.08 µM): 0.161
- relative viability (HCC-366; first compound 0.8 µM): 0.149
- relative viability (HCC-366; first compound 2.53 µM): 0.151
- relative viability (HCC-366; first compound 8 µM): 0.236
- relative viability (SK-LU-1; first compound 0.08 µM): 0.975
- relative viability (SK-LU-1; first compound 0.8 µM): 1.13
- relative viability (SK-LU-1; first compound 2.53 µM): 0.962
- relative viability (SK-LU-1; first compound 8 µM): 0.988
- relative viability (NCI-H1755; first compound 0.08 µM): 0.448
- relative viability (NCI-H1755; first compound 0.8 µM): 0.468
- relative viability (NCI-H1755; first compound 2.53 µM): 0.433
- relative viability (NCI-H1755; first compound 8 µM): 0.46
- relative viability (H3255; first compound 0.08 µM): 0.566
- relative viability (H3255; first compound 0.8 µM): 0.616
- relative viability (H3255; first compound 2.53 µM): 0.597
- relative viability (H3255; first compound 8 µM): 0.585
- relative viability (PC-3 [JPC-3]; first compound 0.08 µM): 1.04
- relative viability (PC-3 [JPC-3]; first compound 0.8 µM): 1.17
- relative viability (PC-3 [JPC-3]; first compound 2.53 µM): 1.07
- relative viability (PC-3 [JPC-3]; first compound 8 µM): 0.634
- relative viability (NCI-H1975; first compound 0.08 µM): 0.313
- relative viability (NCI-H1975; first compound 0.8 µM): 0.286
- relative viability (NCI-H1975; first compound 2.53 µM): 0.285
- relative viability (NCI-H1975; first compound 8 µM): 0.311
- relative viability (NCI-H1437; first compound 0.08 µM): 0.339
- relative viability (NCI-H1437; first compound 0.8 µM): 0.306
- relative viability (NCI-H1437; first compound 2.53 µM): 0.317
- relative viability (NCI-H1437; first compound 8 µM): 0.215
- relative viability (NCI-H650; first compound 0.08 µM): 0.968
- relative viability (NCI-H650; first compound 0.8 µM): 1.17
- relative viability (NCI-H650; first compound 2.53 µM): 0.979
- relative viability (NCI-H650; first compound 8 µM): 0.954
- relative viability (NCI-H1793; first compound 0.08 µM): 0.82
- relative viability (NCI-H1793; first compound 0.8 µM): 1.06
- relative viability (NCI-H1793; first compound 2.53 µM): 1.18
- relative viability (NCI-H1793; first compound 8 µM): 0.37
- relative viability (NCI-H596; first compound 0.08 µM): 0.478
- relative viability (NCI-H596; first compound 0.8 µM): 0.507
- relative viability (NCI-H596; first compound 2.53 µM): 0.53
- relative viability (NCI-H596; first compound 8 µM): 0.445
- relative viability (HCC-15; first compound 0.08 µM): 0.226
- relative viability (HCC-15; first compound 0.8 µM): 0.24
- relative viability (HCC-15; first compound 2.53 µM): 0.233
- relative viability (HCC-15; first compound 8 µM): 0.207
- relative viability (NCI-H441; first compound 0.08 µM): 0.255
- relative viability (NCI-H441; first compound 0.8 µM): 0.261
- relative viability (NCI-H441; first compound 2.53 µM): 0.301
- relative viability (NCI-H441; first compound 8 µM): 0.274
- relative viability (NCI-H2405; first compound 0.08 µM): 1.09
- relative viability (NCI-H2405; first compound 0.8 µM): 1.15
- relative viability (NCI-H2405; first compound 2.53 µM): 1.18
- relative viability (NCI-H2405; first compound 8 µM): 0.818
